Results taken from patent publication US20090280169A1, “Compositions of peptides and processes of preparation thereof” (Merrion Research III Limited, priority 2008, published 2009).
Entries after “also recorded” stand apart in the source; their conditions may differ. Non-standard residues stand in square brackets, D forms with d. Residues, ends and D or L forms follow the SMILES beside them. dPhe(4-NH2) = Nc1ccc(C[C@@H](N)C(=O)O)cc1; dPhe(4-Cl) = N[C@H](Cc1ccc(Cl)cc1)C(=O)O; Phe(4-NH2) = Nc1ccc(C[C@H](N)C(=O)O)cc1; d2Nal = N[C@H](Cc1ccc2ccccc2c1)C(=O)O; Lys(iPr) = CC(C)NCCCC[C@H](N)C(=O)O; d3Pal = N[C@H](Cc1cccnc1)C(=O)O

Assay: Gelation of acyline in pH 6.8 buffer with sodium caprate and Tween 80 (filtration, HPLC)
Type: physicochemical
Procedure: Different concentrations of acyline composition are prepared by adding acyline to pH 6.8 buffer solution either at room temperature or 37° C. All acyline solutions contain 0.6 mg/mL sodium caprate (sodium caprate is referred as C10 in the figures). All samples are centrifuged and filtered prior to analysis. Samples are analyzed by reverse phase HPLC with UV detection. 10 mg acyline is transferred into […] volumetric flask. A pH 6.8 buffer solution is preheated to 37° C. Then, 100 mL pre-heated buffer solution and 0.6 mg/mL sodium caprate is added to the flask to prepare a 0.1 mg/mL acyline sample. In a similar manner, Tween 80 is added to prepare a 0.1 mg/mL acyline solution with 1% Tween 80. Samples are shaken in a temperature controlled water bath at 37° C. 5 mL samples are taken at 1, 5, 10, 15, 20, 30 and 120 minutes after mixing acyline with the buffer solution. Samples are filtered immediately through 0.45 μm filters and the first 3 mL is discarded. Filtered samples are analyzed, undiluted, by reverse phase HPLC with UV detection. All samples are prepared in duplicate and the concentration was obtained for the analysis from the mean of the duplicates. The result of comparison of 1% and 0% Tween 80 at 0.1 mg/mL acyline sample is graphically recorded in FIG. 5. […] A similar experimental procedure as Example 4 is used to prepare acyline sample for example 5. The result of comparison of 5 mg/mL, 1.0 mg/mL, 0.1 mg/mL, and 0.1% Tween in phosphate buffer containing 0.6 mg/mL of sodium caprate and 0.1 mg/mL acyline is graphically recorded in FIG. 6. […] A similar experimental procedure as Example 4 is used to prepare acyline sample for example 6. The result of comparison of 1% and 1 mg/mL Tween 80 in 0.1 and 0.01 mg/mL acyline sample is graphically recorded in FIG. 7. […] A similar experimental procedure as Example 4 is used to prepare acyline sample for example 7. The result of comparison of 0.01 mg/mL acyline samples having 0.1%, 0.5% and 1% Tween 80 is graphically recorded in FIG. 8.

gelation of acyline (0.01 mg/mL acyline, 0.6 mg/mL sodium caprate, 1% Tween 80): significantly reduces the gelation
gelation of acyline (0.1 mg/mL acyline, 37° C., 0.6 mg/mL sodium caprate alone (0% Tween 80)): insufficient to reduce the gelation
SMILES: CC(=O)Nc1ccc(C[C@H](NC(=O)[C@H](CO)NC(=O)[C@@H](Cc2cccnc2)NC(=O)[C@@H](Cc2ccc(Cl)cc2)NC(=O)[C@@H](Cc2ccc3ccccc3c2)NC(C)=O)C(=O)N[C@H](Cc2ccc(NC(C)=O)cc2)C(=O)N[C@@H](CC(C)C)C(=O)N[C@@H](CCCCNC(C)C)C(=O)N2CCC[C@H]2C(=O)N[C@H](C)C(N)=O)cc1 [acyline, Ac-D2Nal-D4Cpa-D3Pal-Ser4Aph(Ac)-D4Aph(Ac)-Leu-ILys-Pro-DAla-NH2] (Ac-[d2Nal][dPhe(4-Cl)][d3Pal]S[Phe(4-NH2)](Ac)[dPhe(4-NH2)](Ac)L[Lys(iPr)]P[dA]-NH2)
gelation of acyline (0.1 mg/mL acyline, 0.6 mg/mL sodium caprate, 1% Tween 80): successfully reduces the gelation; also recorded: completely inhibit the gelation
